# How the values were obtained:
# [1] = Antiproliferative activity against human A875 cells assessed as inhibition of cell growth incubated for 24 hrs by MTT reagent based ELISA; assay type: functional; conditions: A875, 24 h
# HCT-116 [2] = assay: Antiproliferative activity against human HCT-116 cells assessed as inhibition of cell growth incubated for 24 hrs by MTT assay; assay type: functional, cell-based; conditions: HCT-116, 24 h
# MCF7 [3] = assay: Antiproliferative activity against human MCF7 cells assessed as inhibition of cell growth incubated for 24 hrs by MTT assay; assay type: functional, cell-based; conditions: MCF7, 24 h
# HL-60 = assay: Antiproliferative activity against human HL-60 cells assessed as inhibition of cell growth incubated for 72 hrs by MTT assay; assay type: functional, cell-based; conditions: HL-60, 72 h
# J82 = assay: Antiproliferative activity against human J82 cells assessed as inhibition of cell growth incubated for 72 hrs by MTT assay; assay type: functional, cell-based; conditions: J82, 72 h
# SK-MES-1 = assay: Antiproliferative activity against human SK-MES-1 cells assessed as inhibition of cell growth incubated for 72 hrs by MTT assay; assay type: functional, cell-based; conditions: SK-MES-1, 72 h
# AGS = assay: Antiproliferative activity against human AGS cells assessed as inhibition of cell growth incubated for 72 hrs by MTT assay; assay type: functional, cell-based
# [4] = Antiproliferative activity against human WM9 cells assessed as inhibition of cell growth incubated for 72 hrs by XTT assay; assay type: functional, cell-based; conditions: WM9, 72 h
# SBcl2 = assay: Antiproliferative activity against human SBcl2 cells assessed as inhibition of cell growth incubated for 72 hrs by XTT assay; assay type: functional, cell-based; conditions: SBcl2, 72 h
# WM164 = assay: Antiproliferative activity against human WM164 cells assessed as inhibition of cell growth incubated for 72 hrs by XTT assay; assay type: functional, cell-based; conditions: WM164, 72 h
# [5] = Antiproliferative activity against human FS-1 [Human leukemia] cells assessed as inhibition of cell growth incubated for 72 hrs by XTT assay; assay type: functional, cell-based
# MUGMel2 = assay: Antiproliferative activity against human MUG-Mel2 cells assessed as inhibition of cell growth incubated for 72 hrs by XTT assay; assay type: functional, cell-based; conditions: MUGMel2, 72 h
# A549 [6] = assay: Antiproliferative activity against human A549 cells assessed as inhibition of cell growth incubated for 72 hrs by MTT reagent based microplate reader assay; assay type: functional; conditions: A549, 72 h
# SW872 = assay: Antiproliferative activity against human SW872 cells assessed as inhibition of cell growth incubated for 72 hrs by MTT reagent based microplate reader assay; assay type: functional; conditions: SW872, 72 h
# [7] = Antiproliferative activity against human A875 cells assessed as inhibition of cell growth incubated for 72 hrs by MTT reagent based microplate reader assay; assay type: functional; conditions: A875, 72 h
# HCT-8 = assay: Antiproliferative activity against human HCT-8 cells assessed as inhibition of cell growth incubated for 96 hrs by CCK-8 assay; assay type: functional, cell-based; conditions: HCT-8, 96 h
# HCT-29 = assay: Antiproliferative activity against human HCT-29 cells assessed as inhibition of cell growth incubated for 96 hrs by CCK-8 assay; assay type: functional, cell-based; conditions: HCT-29, 96 h
# DLD-1 = assay: Antiproliferative activity against human DLD-1 cells assessed as inhibition of cell growth incubated for 96 hrs by CCK-8 assay; assay type: functional, cell-based; conditions: DLD-1, 96 h
# DU-145 = assay: Cytotoxicity against human DU-145 cells incubated for 48 hrs by sulforhodamine B staining based spectrophotometric analysis; assay type: functional, cell-based; conditions: DU-145, 48 h
# MCF7 [8] = assay: Cytotoxicity against human MCF7 cells incubated for 48 hrs by sulforhodamine B staining based spectrophotometric analysis; assay type: functional, cell-based; conditions: MCF7, 48 h
# A2780 = assay: Cytotoxicity against human A2780 cells incubated for 48 hrs by MTT assay; assay type: functional, cell-based; conditions: A2780, 48 h
# HCT-116 [9] = assay: Cytotoxicity against human HCT-116 cells incubated for 48 hrs by MTT assay; assay type: functional, cell-based; conditions: HCT-116, 48 h
# Bel-7402 = assay: Cytotoxicity against human Bel-7402 cells incubated for 48 hrs by MTT assay; assay type: functional, cell-based; conditions: Bel-7402, 48 h
# MDA-MB-231 = assay: Cytotoxicity against human MDA-MB-231 cells incubated for 48 hrs by MTT assay; assay type: functional, cell-based; conditions: MDA-MB-231, 48 h
# HCT-15 = assay: Cytotoxicity against human HCT-15 cells incubated for 48 hrs by MTT assay; assay type: functional, cell-based; conditions: HCT-15, 48 h
# MCF7 [10] = assay: Cytotoxicity against human MCF7 cells assessed as reduction in cell growth incubated upto 72 hrs by MTT assay; assay type: functional, cell-based; conditions: MCF7, 72 h
# MDA-MB-468 = assay: Cytotoxicity against human MDA-MB-468 cells assessed as reduction in cell growth incubated upto 72 hrs by MTT assay; assay type: functional, cell-based; conditions: MDA-MB-468, 72 h
# MV4-11 = assay: Cytotoxicity against human MV4-11 cells incubated for 48 hrs; assay type: functional, cell-based; conditions: MV4-11, 48 h
# MOLM-14 = assay: Cytotoxicity against human MOLM-14 cells incubated for 48 hrs; assay type: functional, cell-based; conditions: MOLM-14, 48 h
# HCT-116 [11] = assay: Cytotoxicity against human HCT-116 cells incubated for 72 hrs by MTT assay; assay type: functional, cell-based; conditions: HCT-116, 72 h
# MDA-MB-435 = assay: Cytotoxicity against human MDA-MB-435 cells incubated for 72 hrs by MTT assay; assay type: functional, cell-based; conditions: MDA-MB-435, 72 h
# A549 [12] = assay: Cytotoxicity against human A549 cells incubated for 72 hrs by MTT assay; assay type: functional, cell-based; conditions: A549, 72 h
smiles,measurement,setting,value
CC(C)=CC[C@@H](OC(=O)Cc1ccc(Oc2ccccc2)cc1)C1=CC(=O)c2c(O)ccc(O)c2C1=O,IC50,[1],1240 nM
CC1=C/C(=N\NC(=O)CCCCCCCCCC(=O)NN)c2ccccc2C1=O,IC50,HCT-116 [2],75000 nM
same,IC50,MCF7 [3],56000 nM
CC(=O)N(C1=C2NCCN=C2c2ccccc2C1=O)c1ccccc1,IC50,HL-60,11900 nM
same,IC50,J82,2000 nM
same,IC50,SK-MES-1,6400 nM
same,IC50,AGS,15500 nM
CC(C)=C/C=C/C1=C(C(CC=C(C)C)C2=CC(=O)c3c(O)ccc(O)c3C2=O)C(=O)c2c(O)ccc(O)c2C1=O (configuration not stated),IC50,[4],600 nM
same,IC50,SBcl2,300 nM
same,IC50,WM164,1700 nM
same,IC50,[5],500 nM
same,IC50,MUGMel2,700 nM
CC(C)=CC[C@@H](OC(=O)/C=C\c1cccc(C(F)(F)F)c1)C1=CC(=O)c2c(O)ccc(O)c2C1=O,IC50,A549 [6],1620 nM
same,IC50,SW872,690 nM
same,IC50,[7],650 nM
COC(=O)C(CS[C@H](CC=C(C)C)C1=CC(=O)c2c(O)ccc(O)c2C1=O)NC(=O)c1cc(S(C)(=O)=O)ccc1OC (some centres not stated),IC50,HCT-8,2160 nM
same,IC50,HCT-29,3570 nM
same,IC50,DLD-1,10000 nM
O=C1C(Cl)=C(NCCN2CCN(C3=C(Cl)C(=O)c4ccccc4C3=O)CC2)C(=O)c2ccccc21,IC50,DU-145,2520 nM
same,IC50,MCF7 [8],2160 nM
CCCCCCCCC(OCCC(C)C)c1ccc2c(c1OC)/C(=N\O)C=C/C2=N\O (configuration not stated),IC50,A2780,8260 nM
same,IC50,HCT-116 [9],21500 nM
same,IC50,Bel-7402,5110 nM
same,IC50,MDA-MB-231,660 nM
same,IC50,HCT-15,36400 nM
CC1=C(Cl)C(=O)c2c(O)cccc2C1=O,IC50,MCF7 [10],2000 nM
same,IC50,MDA-MB-468,600 nM
O=C1C(NCCO)=C(C2=C(NCCO)C(=O)c3ccccc3C2=O)C(=O)c2ccccc21,IC50,MV4-11,200 nM
same,IC50,MOLM-14,160 nM
CC1(C)O[C@H]2[C@@H](O1)[C@@H](Cn1nnc3c1C(=O)c1cccc(O)c1C3=O)O[C@@H]1OC(C)(C)O[C@@H]12,IC50,HCT-116 [11],520 nM
same,IC50,MDA-MB-435,290 nM
same,IC50,A549 [12],990 nM
